According to ChEMBL document CHEMBL3885861, “Open TG-GATES”:

Species: Rattus norvegicus
Assay: Open TG-GATES - Regimen: Daily Repeat
Assay type: toxicity, organism-based, Sprague-Dawley
Design: regimen Daily Repeat, gender Male, age 6 weeks
Details: in vivo, po, 100 mg/kg, route gavage, dose level Low; for APTT / Bas / Eos / Fbg / Hb / Ht / Lym / MCH / MCHC / MCV / Mono / Neu / PT / Plat / RBC / Ret / WBC: tissue Blood; for KIDNEY_L / KIDNEY_R / KIDNEY_TOTAL: tissue Kidney; for LIVER: tissue Liver; for A/G / ALP / ALT / AST / BUN / CRE / Ca / Cl / DBIL / GLC / IP / K / LDH / Na / PL / RALB / TBIL / TC / TG / TP / gamma-GTP: tissue Plasma

SMILES: CC(=O)[C@@]1(O)CC[C@H]2[C@@H]3C=C(Cl)C4=CC(=O)CC[C@]4(C)[C@H]3CC[C@@]21C [CHLORMADINONE]
- TERMINAL_BW (72 h, time 3 day): 229.4 g
- APTT (72 h, time 3 day): 26.3 s
- Bas (72 h, time 3 day): 0%
- Eos (72 h, time 3 day): 1%
- Fbg (72 h, time 3 day): 311.6 mg/dL
- Hb (72 h, time 3 day): 14.1 g/dL
- Ht (72 h, time 3 day): 42.6%
- Lym (72 h, time 3 day): 80.4%
- MCH (72 h, time 3 day): 20.1 pg
- MCHC (72 h, time 3 day): 33.1%
- MCV (72 h, time 3 day): 60.6 fL
- Mono (72 h, time 3 day): 2.4%
- Neu (72 h, time 3 day): 15.6%
- PT (72 h, time 3 day): 15.3 s
- Plat (72 h, time 3 day): 122.1 x10_4/uL
- RBC (72 h, time 3 day): 702.6 x10_4/ul
- Ret (72 h, time 3 day): 5.8%
- WBC (72 h, time 3 day): 113 x10_2/uL
- KIDNEY_L (72 h, time 3 day): 1 g
- KIDNEY_R (72 h, time 3 day): 1 g
- KIDNEY_TOTAL (72 h, time 3 day): 2 g
- LIVER (72 h, time 3 day): 10.5 g
- A/G (72 h, time 3 day): 1.3
- ALP (72 h, time 3 day): 1589 IU/L
- ALT (72 h, time 3 day): 54 IU/L
- AST (72 h, time 3 day): 72.8 IU/L
- BUN (72 h, time 3 day): 15.8 mg/dL
- CRE (72 h, time 3 day): 0.2 mg/dL
- Ca (72 h, time 3 day): 10.7 mg/dL
- Cl (72 h, time 3 day): 106.2 meq/L
- DBIL (72 h, time 3 day): 0 mg/dL
- GLC (72 h, time 3 day): 192.4 mg/dL
- IP (72 h, time 3 day): 7.4 mg/dL
- K (72 h, time 3 day): 4.5 meq/L
- LDH (72 h, time 3 day): 171.4 IU/L
- Na (72 h, time 3 day): 141.6 meq/L
- PL (72 h, time 3 day): 160.2 mg/dL
- RALB (72 h, time 3 day): 3.1 g/dL
- TBIL (72 h, time 3 day): 0.006 mg/dL
- TC (72 h, time 3 day): 74 mg/dL
- TG (72 h, time 3 day): 129.4 mg/dL
- TP (72 h, time 3 day): 5.5 g/dL
- gamma-GTP (72 h, time 3 day): 1.6 IU/L
- TERMINAL_BW ([…], time 7 day): 252.1 g
- TERMINAL_BW ([…], time 14 day): 293.5 g
- TERMINAL_BW ([…], time 28 day): 362.8 g
- APTT ([…], time 7 day): 27.7 s
- Bas ([…], time 7 day): 0%
- Eos ([…], time 7 day): 1%
- Fbg ([…], time 7 day): 343.2 mg/dL
- Hb ([…], time 7 day): 14.5 g/dL
- Ht ([…], time 7 day): 43.2%
- Lym ([…], time 7 day): 84%
- MCH ([…], time 7 day): 20.2 pg
- MCHC ([…], time 7 day): 33.6%
- MCV ([…], time 7 day): 60.1 fL
- Mono ([…], time 7 day): 2.2%
- Neu ([…], time 7 day): 12%
- PT ([…], time 7 day): 15.2 s
- Plat ([…], time 7 day): 133.1 x10_4/uL
- RBC ([…], time 7 day): 720.2 x10_4/ul
- Ret ([…], time 7 day): 4.2%
- WBC ([…], time 7 day): 118.1 x10_2/uL
- APTT ([…], time 14 day): 27.9 s
- Bas ([…], time 14 day): 0%
- Eos ([…], time 14 day): 0.8%
- Fbg ([…], time 14 day): 327.6 mg/dL
- Hb ([…], time 14 day): 14.8 g/dL
- Ht ([…], time 14 day): 43.9%
- Lym ([…], time 14 day): 82%
- MCH ([…], time 14 day): 19.5 pg
- MCHC ([…], time 14 day): 33.8%
- MCV ([…], time 14 day): 57.6 fL
- Mono ([…], time 14 day): 2%
- Neu ([…], time 14 day): 14.6%
- PT ([…], time 14 day): 15.2 s
- Plat ([…], time 14 day): 103.8 x10_4/uL
- RBC ([…], time 14 day): 762.8 x10_4/ul
- Ret ([…], time 14 day): 3.6%
- WBC ([…], time 14 day): 100.2 x10_2/uL
- APTT ([…], time 28 day): 27.1 s
- Bas ([…], time 28 day): 0%
- Eos ([…], time 28 day): 1%
- Fbg ([…], time 28 day): 303.4 mg/dL
- Hb ([…], time 28 day): 15.5 g/dL
- Ht ([…], time 28 day): 45.1%
- Lym ([…], time 28 day): 84.8%
- MCH ([…], time 28 day): 19.2 pg
- MCHC ([…], time 28 day): 34.4%
- MCV ([…], time 28 day): 55.7 fL
- Mono ([…], time 28 day): 1.6%
- Neu ([…], time 28 day): 11.4%
- PT ([…], time 28 day): 14.9 s
- Plat ([…], time 28 day): 95 x10_4/uL
- RBC ([…], time 28 day): 809 x10_4/ul
- Ret ([…], time 28 day): 2.2%
- WBC ([…], time 28 day): 106.1 x10_2/uL
- KIDNEY_L ([…], time 7 day): 1.1 g
- KIDNEY_R ([…], time 7 day): 1.1 g
- KIDNEY_TOTAL ([…], time 7 day): 2.2 g
- KIDNEY_L ([…], time 14 day): 1.1 g
- KIDNEY_R ([…], time 14 day): 1.1 g
- KIDNEY_TOTAL ([…], time 14 day): 2.3 g
- KIDNEY_L ([…], time 28 day): 1.3 g
- KIDNEY_R ([…], time 28 day): 1.3 g
- KIDNEY_TOTAL ([…], time 28 day): 2.5 g
- LIVER ([…], time 7 day): 11.1 g
- LIVER ([…], time 14 day): 12 g
- LIVER ([…], time 28 day): 14.2 g
- A/G ([…], time 7 day): 1.2
- ALP ([…], time 7 day): 1694.8 IU/L
- ALT ([…], time 7 day): 46.4 IU/L
- AST ([…], time 7 day): 74.6 IU/L
- BUN ([…], time 7 day): 16.2 mg/dL
- CRE ([…], time 7 day): 0.2 mg/dL
- Ca ([…], time 7 day): 10.7 mg/dL
- Cl ([…], time 7 day): 106.8 meq/L
- DBIL ([…], time 7 day): 0 mg/dL
- GLC ([…], time 7 day): 185.4 mg/dL
- IP ([…], time 7 day): 7.2 mg/dL
- K ([…], time 7 day): 4.2 meq/L
- LDH ([…], time 7 day): 148.4 IU/L
- Na ([…], time 7 day): 140.6 meq/L
- PL ([…], time 7 day): 155.2 mg/dL
- RALB ([…], time 7 day): 3.1 g/dL
- TBIL ([…], time 7 day): 0.002 mg/dL
- TC ([…], time 7 day): 67.4 mg/dL
- TG ([…], time 7 day): 200.6 mg/dL
- TP ([…], time 7 day): 5.7 g/dL
- gamma-GTP ([…], time 7 day): 2 IU/L
- A/G ([…], time 14 day): 1.2
- ALP ([…], time 14 day): 1379.4 IU/L
- ALT ([…], time 14 day): 44.8 IU/L
- AST ([…], time 14 day): 72.8 IU/L
- BUN ([…], time 14 day): 17.2 mg/dL
- CRE ([…], time 14 day): 0.2 mg/dL
- Ca ([…], time 14 day): 10.3 mg/dL
- Cl ([…], time 14 day): 107.8 meq/L
- DBIL ([…], time 14 day): 0 mg/dL
- GLC ([…], time 14 day): 183.8 mg/dL
- IP ([…], time 14 day): 6.5 mg/dL
- K ([…], time 14 day): 4.2 meq/L
- LDH ([…], time 14 day): 144.4 IU/L
- Na ([…], time 14 day): 142.2 meq/L
- PL ([…], time 14 day): 142.6 mg/dL
- RALB ([…], time 14 day): 3.1 g/dL
- TBIL ([…], time 14 day): 0.006 mg/dL
- TC ([…], time 14 day): 69.2 mg/dL
- TG ([…], time 14 day): 142.2 mg/dL
- TP ([…], time 14 day): 5.7 g/dL
- gamma-GTP ([…], time 14 day): 2 IU/L
- A/G ([…], time 28 day): 1.1
- ALP ([…], time 28 day): 1170.6 IU/L
- ALT ([…], time 28 day): 46.8 IU/L
- AST ([…], time 28 day): 66.6 IU/L
- BUN ([…], time 28 day): 18.8 mg/dL
- CRE ([…], time 28 day): 0.2 mg/dL
- Ca ([…], time 28 day): 10.5 mg/dL
- Cl ([…], time 28 day): 105.8 meq/L
- DBIL ([…], time 28 day): 0 mg/dL
- GLC ([…], time 28 day): 192.8 mg/dL
- IP ([…], time 28 day): 6.5 mg/dL
- K ([…], time 28 day): 4.2 meq/L
- LDH ([…], time 28 day): 142 IU/L
- Na ([…], time 28 day): 142 meq/L
- PL ([…], time 28 day): 155.4 mg/dL
- RALB ([…], time 28 day): 3.1 g/dL
- TBIL ([…], time 28 day): 0.006 mg/dL
- TC ([…], time 28 day): 73.2 mg/dL
- TG ([…], time 28 day): 178 mg/dL
- TP ([…], time 28 day): 6 g/dL
- gamma-GTP ([…], time 28 day): 2.2 IU/L
